We go through ten compounds from PMC6389928, “Biomolecular Interaction, Anti-Cancer and Anti-Angiogenic Properties of Cobalt(III) Schiff Base Complexes” (Scientific Reports, 2019).

Like-named read-outs stand apart in the source and are kept apart here. A value given as a limit tells only on which side of the number the result lay.

The test system of data set [1] is DNA. The conditions noted are these: cited from earlier work.
Data set [2] has as its system DNA. The data set is described as follows: Viscosity measurement of DNA. Format: binding. The note with it: 30.0 ± 0.2 °C, increasing amounts of compound. The text has this:
The mode of interaction between DNA and complexes has been further confirmed using viscosity measurements. The intercalation between DNA and metal complex causes lengthening of the DNA helix and increases DNA’s relative viscosity. Ethidium bromide (EB) is a well known DNA intercalator which was used as a standard to make sure our viscosity determination was working properly. […] The increase in relative viscosity follows the DNA-intercalating ability and the order of relative viscosity is EB > 2 > 1.
CD spectra of CT–DNA in the absence and presence of cobalt(III) complexes 1 and 2 were recorded in phosphate buffer. Each sample solution was scanned in the range of 200–320 nm, and final CD spectra were generated after averaging three scans subtracting the buffer background. Viscosity experiments were performed using an Ubbelohde viscometer at a constant temperature (30.0 ± 0.2 °C).

A further data set has as its system A549 lung carcinoma cell. Briefly: MTT assay on A549 cells. The conditions noted are these: A549 lung cancer cells, tested separately. The text has this:
The anti-proliferative property of the complexes 1 and 2 at different concentrations on A549 lung carcinoma cell and monkey kidney epithelial cell Vero was examined by adopting MTT assay (Fig. S7). […] The naked cobalt acetate and ligands salen and salophen were separately tested on A549 cells to understand if metal chelation is the principal basis of the anticancer activity of the complexes.
Culture: Human lung cancer cells (A549) were received from National Centre for Cell Science (NCCS) Pune, India. Vero cells were obtained from ATCC. The cells were grown at humidified atmosphere of 5% CO2 in an incubator at 37 °C (Forma, Thermo Scientific, USA) in DMEM medium (Invitrogen) containing 10% FBS (Sigma-Aldrich, St. Louis, Mo, USA), 100 μg/mL of penicillin and 100 μg/mL streptomycin were used as antibiotics (Himedia, Mumbai, India). […] The cells were seeded in 96 well plates (5000 A549 cells per well) and allowed to attach for 24 h. The cells were then incubated with different concentrations of the metal complexes 1 and 2 dissolved in 100% dimethyl sulfoxide (DMSO) (Sigma-Aldrich) and prepared to a final dilution of 0.02% of DMSO.
In the determination of IC50 value, 0.02% DMSO was used as the solvent control. After the end of incubation period (24 h), the medium was aspirated carefully and replaced with new medium. The formazan formed was dissolved in100 μL of 100% DMSO to each well. The absorbance was monitored at 570 nm using a 96 well plate reader (Bio-Rad, Hercules, California, USA). All experiments were repeated for a minimum of three times when each experiment was done in two replicates.
For orientation: Tetrazolium assays rely on reduction of a dye to a coloured formazan, in cell work by metabolically active cells.

Consider `CC[n+]1c(-c2ccccc2)c2cc(N)ccc2c2ccc(N)cc21` [EB, ethidium bromide, reference compound], for which, in the data set on DNA [1] (typical classical intercalator), the Kb is 494000 M⁻¹. Moreover, the “effect on relative viscosity of DNA” value in the data set with DNA [2] was “significant increase in the viscosity of the DNA solutions”.

For the compound `CCCCCCCCCCCCN.CCCCCCCCCCCCN.NCCNCCN.[Cl-].[Co+3].[O-][Cl+3]([O-])([O-])[O-].[O-][Cl+3]([O-])([O-])[O-]` [[Co(dien)(DA)2Cl](ClO4)2], the Kb in the data set with DNA [1] is 14318 M⁻¹.

For `CCCCCCCCCCCCN.NCCNCCN.[Cl-].[Cl-].[Co+3].[O-][Cl+3]([O-])([O-])[O-]` [[Co(dien)(DA)Cl2](ClO4)], in the data set with DNA [1], the Kb is 3110.8 M⁻¹.

Take `CCCCCCCCCCCN.[Cl-].[Co+3].[O-][Cl+3]([O-])([O-])[O-].[O-][Cl+3]([O-])([O-])[O-].c1ccc(-c2ccccn2)nc1.c1ccc(-c2ccccn2)nc1` [cis-[Co(bpy)2(C11H23NH2)Cl](ClO4)2]: the Kb in the data set with DNA [1] was 22100 M⁻¹.

In the case of `CCCCCCCCCCCCCCN.[Cl-].[Co+3].[O-][Cl+3]([O-])([O-])[O-].[O-][Cl+3]([O-])([O-])[O-].c1ccc(-c2ccccn2)nc1.c1ccc(-c2ccccn2)nc1` [cis-[Co(bpy)2(C14H29NH2)Cl](ClO4)2], in the data set with DNA [1], the Kb was 28600 M⁻¹.

As to `CCCCCCCCCCCCCCN.NCCN.NCCN.[Cl-].[Co+3].[O-][Cl+3]([O-])([O-])[O-].[O-][Cl+3]([O-])([O-])[O-]` [cis-[Co(en)2(C14H29NH2)Cl](ClO4)2], in the data set with DNA [1], the Kb was 25900 M⁻¹.

For `CC(=O)[O-].CC(=O)[O-].O.O.O.O.[Co+2]` [cobalt acetate, Cobalt(II) acetate tetrahydrate], the “concentration up to which not cytotoxic” value with A549 lung carcinoma cell is over 200 µM.

Take `Oc1ccccc1C=NCCN=Cc1ccccc1O` [salen, N,N’-bis(salicylidene)ethylenediamine]: the “concentration up to which not cytotoxic” value in the data set on A549 lung carcinoma cell is over 200 µM.

With `Oc1ccccc1C=Nc1ccccc1N=Cc1ccccc1O` [salophen, N,N’-bis(salicylidene)-1,2-phenylenediamine], the “concentration up to which not cytotoxic” value in the data set on A549 lung carcinoma cell is over 200 µM.

[Co(dien)(CA)Cl2](ClO4): the Kb with DNA [1] was 9005.2 M⁻¹.
